Drawing on paper PMC8534003, “The Chemokine-Based Peptide, CXCL9(74-103), Inhibits Angiogenesis by Blocking Heparan Sulfate Proteoglycan-Mediated Signaling of Multiple Endothelial Growth Factors” (Cancers, 2021), this text covers tumor-associated angiogenesis for 1 sequence.

The subject of this test is MDA-MB-231 breast cancer xenograft. Description: In vivo MDA-MB-231 breast cancer mouse model. The arrangement: species or system human tumor cells in SCID mice. The conditions noted are these: 800 µg s.c. osmotic pump; text says data not shown. On the procedure:
Six-to-eight-week-old female SCID mice were s.c. injected with 6 × 10^6 MDA-MB-231 breast tumor cells (American Type Culture Collection, Manassas, VA) in 200 µL PBS. Three days later, mice were anesthetized as described (vide supra), a dorsal incision was made and an ALZET osmotic pump (model 1002, DURECT Corporation) containing 800 µg/100 µL CXCL9(74-103) or CXCL9(86-103) or 100 µL PBS was s.c. implanted, which delivered a continuous dose over the course of two weeks. Three weeks after tumor cell injection, mice were sacrificed. Tumors were isolated, minced and added to 2 mL of tumor cell medium [TCM; 5% (v/v) FCS in RPMI 1640 + Glutamax (Gibco)]. After centrifugation (500 g, room temperature, 5 min), minced tumors were incubated at 37 °C for 30 min in 3 mL of digestion medium [2 mg/mL collagenase D, 0.1 mg/mL DNAse and 5 U/mL dispase (Corning Life Sciences) in TCM]. Subsequently, tumor fragments were further disrupted using a 1 mL syringe and 18G needle, and 2 mL of digestion medium was added for an additional incubation at 37 °C for 15 min. […] After centrifugation (500 g, 4 °C, 5 min), the pellet was resuspended in 500 µL of 2% (v/v) FCS in PBS and the cells were counted. To assess the anti-angiogenic potential of the CXCL9-derived peptides, the population of endothelial cells within the tumor samples was determined via flow cytometry (vide supra).

As for KKVLKVRKSQRSRQKKTT [CXCL9(86-103)], the tumor-associated angiogenesis result is listed as “no anti-angiogenic activity”.
